≈ marks a conversion by molar mass, not a printed value. Each block holds one compound with its values, some of them ahead of it.
How the values were obtained:
[1] = tested on: Human colon adenocarcinoma (HT-29) cells; assay: In-vitro cytotoxicity in HT-29 cells; assay type: cell-based; settings: HT-29 cells, dose inhibiting 50% of cell growth
Source text: FIGS. 24a and 24b are graphs illustrating the in-vitro cytotoxic effects of SP1-DOX complex. FIG. 24a—HT-29 cells cultured in 96 well microtiter plates were exposed to uncomplexed DOX (closed oval, magenta) or SP1-DOX complex (closed triangle, blue) prepared as described in FIGS. 9-15, at the indicated concentrations. FIG. 24b—HT-29 cells were exposed to uncomplexed SP1 (without DOX) (closed diamond, blue) or SP1-DOX complex (closed triangle, yellow) at indicated concentrations. Proportion of living cells was determined by MTT assay, and the IC50 was calculated.
HT-29 cells were prepared as in FIG. 24 above.
Human colon adenocarcinoma (HT-29) cells. The cells were grown in 50-ml flasks containing DMEM medium (Biological Industries, Bet Haemek), supplemented with 10% fetal calf serum, 1% glutamine and 1% Antibiotic-Antimicotic solution (Biolab, Israel). The cells were trypsinizated, and 2 ml medium containing 5×10^4 cells were plated in each well of a 6-wells plate. SP1, drugs or SP1-complexed with drugs was added at the indicated concentrations. The cells were incubated at 37° C. in a humidified atmosphere containing 5% CO2.After 48 hours the medium in the presence or absence of drugs was replaced in each well respectively, to maintain a constant supply of ingredients and drugs. After four days the medium was removed and the number of viable cells in the cultures was determined by spectroscopy.
The human colorectal adenocarcinoma cell line, HT-29, was used to evaluate the biological activity of the SP1-DOX complex, compared to that of the free drug and un-complexed SP1 protein. […] Thus, the SP1-DOX complex is at least as biologically active as free DOX.

[2] = tested on: human LS147T colon cancer; assay: In-vivo anti-tumorogenic activity in colon cancer xenograft; design: species or system CD1 nude mice; settings: SP1-DOX 0.5 and free DOX 3 mg DOX/kg iv two times a week
Experimental: CD1 nude mice bearing human LS147T colon cancer (one million cells per animal) subcutaneous xenografted tumors were divided into two groups (n=6), and received either SP1-Dox (50 mg/Kg in PBS, about 0.5 mg DOX equivalent/Kg) or PBS (FIG. 27a), or uncomplexed DOX (3 mg/Kg) or PBS (FIG. 27b) alone injected intravenously into the tail vein twice per week for four weeks. Tumors were removed and weighed 35 days post engraftment.
Human LS147T colon cancer (one million cells per animal) were grafted sub cutaneously to CD1 nude mice, […], 18-20 g) (Meyer et al. 1995 Am J Dermatopath; 17:368-73). 8 days later a 3-10-mm tumor appeared in the point of injection. […]
8 days after tumor grafting SP1-DOX (50 mg/Kg in PBS, about […]), free DOX (3 mg/Kg in PBS) or PBS alone, six mice in each group, were injected iv to the tail vein twice a week for four weeks. Tumor dimension was determined by caliper measurements by the standard equation (Kalechman et al. Int J Cancer 2000; 86:281-8). […] Tumors were removed and their weight was determined.
The effect of SP1-complexing on the anti-tumorogenic activity of DOX was determined in vivo using the LS147 (human colon cancer) model in CD1 nude mice (Meyer 1995). […] At 35 days past tumor grafting, the animals were sacrificed, tumors were removed and their weight recorded (FIGS. 27a and 27b). […]

SP1 = assay: Vinblastine binding to SP1 by intrinsic tryptophan fluorescence; design: species or system Populus tremula; settings: native SP1; 80 μM Vinblastine shifts maximal emission to 356 nm
Experimental: FIG. 23 is a graph showing the complex formation of the drug Vinblastine to SP1. Left panel-emission spectra (excitation wavelength=286.00 nm) of pure SP1 (48 μM in MES) was determined using a fluorometer. Both native (left curves) and unfolded (6M Guanidinum HCl)(right curves) SP1 were tested. The net effect of Vinblastine on Tryptophan fluorescence of native protein was calculated by subtracting the relative quenching by the unfolded protein from those of the native protein at the respective maximal emission wavelength (340 nm and 321 nm respectively). Note that the tryptophan fluorescence of both the folded and unfolded SP1 protein is quenched by Vinblastine complexing, but in the case of the folded protein is also accompanied by a red shift);
Vinblastine, a vinca alkaloid, is mainly useful for treating Hodgkin's disease, lymphocytic lymphoma, histiocytic lymphoma, advanced testicular cancer, advanced breast cancer, Kaposi's sarcoma. Vinblastine binding to SP1, was determined by Intrinsic Tryptophan fluorescence measurements.
SP1 has only one Tryptophan residue (Trp 48). […] Unfolded protein fluorescence is also quenched by Vinblastine (FIG. 23), but unlike the native protein it is not accompanied by red shift. Thus, folded SP1-Vinblastine association can be detected, and quantified by changes in its Intrinsic Tryptophan fluorescence.

[3] = mouse, in vivo, iv

Compound: COc1cccc2c1C(=O)c1c(O)c3c(c(O)c1C2=O)C[C@@](O)(C(=O)CO)C[C@@H]3O[C@H]1C[C@H](N)[C@H](O)[C@H](C)O1 [doxorubicin]
IC50 [1]: ~0.6 µg/mL (≈ 1.1 µM)
histological examination of the tumors [2]: extensive necrosis
average tumor size in the end of the experiment versus PBS-treated animals ([2]; 35 days): much smaller

Compound: CC[C@]1(O)C[C@@H]2CN(CCc3c([nH]c4ccccc34)[C@@](C(=O)OC)(c3cc4c(cc3OC)N(C)[C@H]3[C@@](O)(C(=O)OC)[C@H](OC(C)=O)[C@]5(CC)C=CCN6CC[C@]43[C@@H]65)C2)C1 [Vinblastine]
effect on SP1 tryptophan fluorescence (SP1): fluorescence quenching accompanied by a red shift

clearance from circulation [3]: rapidly cleared
Compound: Nc1ccc2c(c1)C(=O)OC21c2ccc(O)cc2Oc2cc(O)ccc21 [Fluoresceinamine]

— patent publication US20150273076A1, “SP1 POLYPEPTIDES, MODIFIED SP1 POLYPEPTIDES AND USES THEREOF” (Fulcrum SP Ltd., priority 2006, published 2015)
